Data published in patent US20230405052A1, “PHARMACEUTICAL COMPOSITION FOR PREVENTING OR TREATING FIBROSIS, COMPRISING ISOLATED MITOCHONDRIA” (Paean Biotechnology Inc., priority 2020, published 2023).

What was measured:
Format in all cases: cell-based
[1] = tested on: human lung fibroblast CCD8-Lu cells; test: Quantitative real-time PCR of fibrosis genes in TGF-β-treated CCD8-Lu fibroblasts; details: qRT-PCR, 10 μg mitochondria or 1 μM nintedanib, 18 hours after 6 hours TGF-β
Method: (§1) In order to analyze the anti-fibrotic activity of mitochondria, a cell-based analysis experiment was performed using a quantitative real-time polymerase chain reaction.
(§2) CCD8-Lu cells and Wi-38 cells, which are human lung-derived fibroblasts, were cultured in DMEM medium containing 10% FBS, respectively. The cells were inoculated into a 6 well plate at about 2×10^5 cells/well and cultured for 24 hours, and then depletion conditions were performed in DMEM medium without FBS for about 24 hours. After 24 hours, the cells were treated with TGF-β at a concentration of 2.5 ng/mL, and then fibrosis of the cells was induced for 6 hours. After 6 hours, the cells were washed twice with PBS to completely remove the remaining TGF-β. Next, the mitochondria isolated from HEK293, UC-MSC and BM-MSC cells in Preparation Example 1 were mixed in DMEM medium, and the cells were treated with the mitochondria and then further cultured for 18 hours (FIG. 1). At this time, the negative control group was not treated with anything, the positive control group was treated with TGF-β alone at a concentration of 5 ng/mL, and the experimental groups were treated with 10 μg of mitochondria isolated from each cell, respectively. […]
(§3) After 18 hours of mitochondria treatment, the culture solution was removed, and the cells were washed twice with a PBS buffer solution, and 0.5 mL of RNA extract (Trizol reagent, Thermo Fisher Scientific) was added directly and then stood at ambient temperature for 10 minutes. […] After drying, about 50 μl of purified RNAase-free distilled water was added, and the quantity and purity of the obtained RNA was measured using a spectrophotometer. […]
Changes in the expression of the alpha actin smooth muscle (α-SMA) gene, a characteristic gene of myofibroblast, the CCN2 (or CTGF) gene, a characteristic gene of fibrosis, fibronectin, a characteristic gene of fibrosis, and the NOX-4 gene, a characteristic gene of fibrosis, were observed by quantitative real-time polymerase chain reaction. The GAPDH gene was quantified together to calibrate for differences in the expression.

[2] = tested on: human lung fibroblast Wi-38 cells; test: Quantitative real-time PCR of fibrosis genes in TGF-β-treated Wi-38 fibroblasts; details: qRT-PCR, 10 μg mitochondria or 1 μM nintedanib, 18 hours after 6 hours TGF-β
Method: as §1
as §2, with “1).” for “1). At this time, the negative control group was not treated with anything, the positive control group was treated with TGF-β alone at a concentration of 5 ng/mL, and the experimental groups were treated with 10 μg of mitochondria isolated from each cell, respectively.”
as §3

[3] = tested on: human lung fibroblast CCD8-Lu cells; test: Western blotting of CTGF expression (FIG. 6); details: western blotting (FIG. 6), 5 μg mitochondria, 18 hours after 6 hours 2.5 ng/mL TGF-β
Method: In order to observe whether the expression of CTGF, a key gene for fibrosis, is regulated by mesenchymal stem cell-derived mitochondria, a cell-based analysis experiment was performed using a Western analysis method.
CCD8-Lu cells (FIG. 6A) and Wi-38 cells (FIG. 6B), which are human lung-derived fibroblasts, were cultured in DMEM medium containing 10% FBS. The cells were inoculated into a 6 well plate at about 2×10^5 cells/well and cultured for 24 hours, and then depletion conditions were performed in DMEM medium without FBS for about 24 hours.
After 24 hours, the cells were treated with TGF-β at a concentration of 2.5 ng/mL, and then fibrosis of the cells was induced for 6 hours. After 6 hours, the cells were washed twice with PBS to completely remove TGF-β. Next, in the same manner as in Preparation Example 1, the mitochondria isolated from UC-MSC and HEK293 cells were mixed in DMEM medium, and the cells were treated with the mitochondria and then further cultured for 18 hours (FIG. 3). […]
The separated supernatant was obtained and transferred to a new microtube, and then protein was quantified using the BCA analysis method. […]

[4] = tested on: human lung fibroblast CCD8-Lu cells; test: Cell immunochemical staining of collagen 1A and fibronectin (FIG. 5); details: immunostaining (FIG. 5), 5 μg mitochondria or 1 mM pirfenidone, after 6 hours 2.5 ng/mL TGF-β
Method: In order to analyze the anti-fibrotic activity of stem cell-derived mitochondria, a cell-based analysis experiment was performed using a […].
CCD8-Lu cells, which are human lung-derived fibroblasts, were cultured in DMEM medium containing 10% FBS. Thereafter, the cells were inoculated into a 24 well plate at about 2×10^4 cells/well, cultured for 24 hours, and then reacted in DMEM medium without FBS for about 24 hours. After 24 hours, the cells were treated with TGF-β at a concentration of 2.5 ng/mL, and then fibrosis of the cells was induced for 6 hours. After 6 hours, the cells were washed twice with PBS to completely remove TGF-β. Next, the mitochondria isolated from umbilical cord blood mesenchymal stem cell UC-MSC, bone marrow mesenchymal stem cell BM-MSC, dedifferentiated stem cell iPSC and HEK293 cells obtained in Preparation Example 1 were mixed in DMEM medium, and the cells were treated with the mitochondria and then further cultured for 18 hours (FIG. 4). […]
Immunohistochemical analysis for each sample was performed as follows. […] The nucleus was stained using DAPI (4,6-diamidino-2-phenylindole), and analysis of differences in fluorescence intensity was performed using a fluorescence microscope.

SMILES | expression of CTGF gene induced by TGF-β [1] | expression of NOX-4 gene induced by TGF-β [1] | expression of alpha actin smooth muscle (α-SMA) gene induced by TGF-β [1] | expression of CTGF gene induced by TGF-β [2] | expression of alpha actin smooth muscle (α-SMA) gene induced by TGF-β [2] | expression of CTGF protein induced by TGF-β [3] | expression of collagen 1A induced by TGF-β (fluorescence intensity) [4] | expression of fibronectin induced by TGF-β (fluorescence intensity) [4]
COC(=O)c1ccc2c(c1)NC(=O)/C2=C(\Nc1ccc(N(C)C(=O)CN2CCN(C)CC2)cc1)c1ccccc1 [nintedanib] | weakly inhibited or hardly inhibited | weakly inhibited or hardly inhibited | weakly inhibited or hardly inhibited | weakly inhibited or hardly inhibited | weakly inhibited or hardly inhibited | hardly inhibited |  | 
Cc1ccc(=O)n(-c2ccccc2)c1 [pirfenidone] |  |  |  |  |  |  | weakly inhibited or hardly inhibited | weakly inhibited or hardly inhibited
